For data set [1], the system named is HT-22. The experiment in a line: Anti-ferroptotic activity against Erastin-induced ferroptosis in […] cells assessed as […] cell viability measured after 24 hrs by MTT assay. The note with it: Mus musculus, HT-22, 24 h. It is filed as functional, cell-based. For orientation: Formazan colour is commonly taken as a measure of viable cells.
Data set [2] concerns HT-22. In words: Reduction in ROS accumulation in RSL-3 treated […] cells assessed as reduction in fluorescence intensity at 1 uM incubated for 4 hrs by C11-BODIPY staining based confocal laser scanning microscopic analysis. The conditions noted are these: Mus musculus. It is filed as functional, cell-based.
For data set [3], the system named is HT-22. In words: Inhibition of RSL-3 induced Ptgs2 mRNA expression in […] cells measured after 4 hrs by quantitative PCR analysis. It counts as functional, cell-based. The conditions noted are these: Mus musculus, dose 1.25-5 µM.
A short description of data set [4]: Permeability of the compound in PBS/EtOH buffer (70:30) incubated for 10 hrs by UV plate reader based PAMPA-BBB assay. It is filed as ADME. The note with it: read-out: permeability. (In general: PAMPA measures passive passage across an artificial lipid membrane.)
The test system of data set [5] is HT-22. The experiment in a line: Anti-ferroptotic activity against Erastin-induced ferroptosis in […] cells assessed as […] cell viability measured after 24 hrs by MTT assay relative to control. It counts as functional, Mus musculus.
The subject of data set [6] is HT-22. In words: Anti-ferroptotic activity against RSL-3-induced morphological changes in […] cells assessed as retention of cell morphology at 1 uM measured after 24 hrs. It counts as functional, cell-based. The conditions noted are these: Mus musculus.
Data set [7] deals with HT-1080. In words: Anti-ferroptotic activity against siRNA-mediated GPX4 knockdown induced ferroptosis in human HT-1080 cells at 1 uM preincubated for 12 hrs in Opti-MEM medium followed by compound addition and measured after 36 hrs. It is filed as functional, cell-based.
In data set [8] the test system is HT-22. In words: Cytotoxicity against […] cells at 40 uM. The conditions noted are these: mouse, ht-22, 40 µM. It counts as toxicity, cell-based.
For data set [9], the system named is HT-22. The experiment in a line: Reduction in ROS accumulation in RSL-3 treated […] cells assessed as reduction in fluorescence intensity at 5 uM incubated for 4 hrs by C11-BODIPY staining based confocal laser scanning microscopic analysis. It counts as functional, cell-based. The conditions noted are these: Mus musculus.
Data set [10] concerns HT-22. The experiment in a line: Anti-ferroptotic activity against RSL-3-induced morphological changes in […] cells assessed as retention of cell morphology measured after 24 hrs. It counts as functional, cell-based. The conditions noted are these: Mus musculus, dose 1.25-5 µM, DDE = dose-dependent effect.
For data set [11], the system named is Rattus norvegicus. The experiment in a line: Neuroprotective activity against middle cerebral artery occlusion-induced ischemia-reperfusion injury Sprague-Dawley rat model assessed as reduction in PTGS2 mRNA expression level at 20 mg/kg, ip measured after 24 hrs by TTC staining based assay. It counts as functional, organism-based.
For data set [12], the system named is Rattus norvegicus. In words: Neuroprotective activity against middle cerebral artery occlusion-induced ischemia-reperfusion injury Sprague-Dawley rat model assessed as reduction in 4-HNE level at 20 mg/kg, ip measured after 24 hrs by TTC staining based assay. It is filed as functional, organism-based.
Data set [13] has as its system HT-22. The experiment in a line: Upregulation of FSP1 mRNA level in […] cells measured after 6 hrs by quantitative PCR analysis. It is filed as functional, cell-based. The note with it: Mus musculus, dose 1.25-5 µM.
Data set [14] deals with HT-1080. In words: Anti-ferroptotic activity against siRNA-mediated GPX4 knockdown induced ferroptosis in human HT-1080 cells at 5 uM preincubated for 12 hrs in Opti-MEM medium followed by compound addition and measured after 36 hrs. It is filed as functional, cell-based.
The test system of data set [15] is HT-22. In words: Anti-ferroptotic activity against Erastin-induced ferroptosis in […] cells assessed as inhibition of cell death measured after 24 hrs by MTT assay. It is filed as functional, cell-based. The conditions noted are these: Mus musculus, HT-22, 24 h.
In data set [16] the test system is HT-22. In words: Reduction in lipid ROS accumulation in RSL-3 treated […] cells incubated for 4 hrs by C11-BODIPY staining based flow cytometric analysis. It counts as functional, cell-based. The conditions noted are these: Mus musculus, dose 1.25-5 µM, DDE = dose-dependent effect. In general terms: In flow cytometry, cells or beads pass a laser one at a time.

Data set [17] concerns HT-22. In words: Effect on intracellular Fe2+ level in […] cells assessed as fluorescence intensity at 5 uM measured after 10 hrs by Hoechst/FerroOrange staining based confocal laser microscopy. It is filed as functional, cell-based. The conditions noted are these: Mus musculus.
For data set [18], the system named is HT-22. The experiment in a line: Anti-ferroptotic activity against RSL-3 induced ferroptosis in […] cells assessed as inhibition of cell death measured after 24 hrs by MTT assay. It is filed as functional, cell-based. The note with it: Mus musculus, HT-22, 24 h.
The subject of data set [19] is HT-22. In words: Upregulation of FSP1 protein level in […] cells assessed as increase in reduced to oxidized COQ10 ratio measured after 6 hrs by Western blot analysis. It counts as functional, cell-based. The conditions noted are these: Mus musculus.
The subject of data set [20] is Rattus norvegicus. In words: Neuroprotective activity against middle cerebral artery occlusion-induced ischemia-reperfusion injury Sprague-Dawley rat model assessed as morphological changes at 20 mg/kg, ip measured after 24 hrs by Nissl staining based assay. It counts as functional, organism-based.
Data set [21] deals with HT-22. In words: Reduction in cytosolic ROS accumulation in RSL-3 treated […] cells incubated for 4 hrs by H2DCFDA fluorescent probe based flow cytometry method. The conditions noted are these: Mus musculus, dose 1.25-5 µM, DDE = dose-dependent effect. It is filed as functional, cell-based.
Data set [22] relates to HT-22. The experiment in a line: Upregulation of FSP1 protein level in […] cells measured after 6 hrs by Western blot analysis. It is filed as functional, cell-based. The note with it: Mus musculus, dose 1.25-5 µM.
The test system of data set [23] is Rattus norvegicus. The experiment in a line: Neuroprotective activity against middle cerebral artery occlusion-induced ischemia-reperfusion injury Sprague-Dawley rat model assessed as reduction in MDA level at 20 mg/kg, ip measured after 24 hrs by TTC staining based assay. It counts as functional, organism-based.
Data set [24] deals with Rattus norvegicus. The experiment in a line: Neuroprotective activity against middle cerebral artery occlusion-induced ischemia-reperfusion injury Sprague-Dawley rat model assessed as reduction in infarct volume at 20 mg/kg, ip measured after 24 hrs by TTC staining based assay. It is filed as functional, organism-based.
Data set [25] relates to Rattus norvegicus. The experiment in a line: Neuroprotective activity against middle cerebral artery occlusion-induced ischemia-reperfusion injury Sprague-Dawley rat model assessed as reduction in neurobehavioral defects at 20 mg/kg, ip measured after 24 hrs by Longa test. It counts as functional, organism-based.
Data set [26] has as its system Rattus norvegicus. The experiment in a line: Neuroprotective activity against middle cerebral artery occlusion-induced ischemia-reperfusion injury Sprague-Dawley rat model assessed as morphological changes at 20 mg/kg, ip measured after 24 hrs by H and E staining-based assay. It is filed as functional, organism-based.
A short description of data set [27]: Metal chelating activity assessed as compound-Fe3+ complex formation at 50 uM by UV-Vis spectroscopic analysis.
The nature of data set [28]: Metal chelating activity assessed as compound-Fe2+ complex formation at 50 uM by UV-Vis spectroscopic analysis.

Calls of active or inactive are those of the source. No cut-off for these calls is given here. Some results are limits rather than exact numbers.

Usually EC50 stands for the concentration that produces a half-maximal response.

In the case of `COc1cccc(OC)c1/C=C/C=C(/C(=O)N1CCN(c2ncccn2)CC1)c1ccccc1`, the EC50 in the data set with HT-22 [1] is over 20 µM.

Consider `COC(=O)c1ccc([C@H]2c3[nH]c4ccccc4c3C[C@H](C(=O)OC)N2C(=O)CCl)cc1`, for which, in the data set on HT-22 [2], the outcome was Active. Besides, the inhibition entry in the data set with HT-22 [3] was “Active”.

For the compound `COc1ccc(/C(=C\C=C\c2ccccc2)C(=O)N2CCN(c3ncccn3)CC2)cc1OC`, the Papp at 10 h in [4] came out at 16.4 ×10⁻⁶ cm/s. In addition, in the data set with HT-22 [1], the EC50 is over 20 µM.

Take `O=C(/C(=C/C=C/c1ccccc1)c1cccc(O)c1)N1CCN(c2ncccn2)CC1`: in data set [4], the Papp at 10 h amounted to 14.5 ×10⁻⁶ cm/s. The 50% effective concentration (EC50) in the data set with HT-22 [1] was over 20 µM.

As for `COc1cc(/C=C/C=C(/C(=O)N2CCN(c3ncccn3)CC2)c2cccc(O)c2)ccc1O`, the Activity with HT-22 [5] came to 84.2%. For the same compound, in data set [4], the Papp at 10 h stood at 5.2 ×10⁻⁶ cm/s. Further, the EC50 in the data set with HT-22 [1] amounted to 4.5 µM.

Turning to `CCOC(=O)c1ccc(NC2CCCCC2)c(N)c1`, the outcome in the data set with HT-22 [6], with HT-22 [2] and in the data set on HT-1080 [7] was Active.

`COc1ccccc1/C=C/C=C(/C(=O)N1CCN(c2ncccn2)CC1)c1ccccc1`: in data set [4], the Papp at 10 h turned out to be 13.6 ×10⁻⁶ cm/s. For the same compound, in the data set on HT-22 [1], the EC50 was over 20 µM.

In the case of `O=C(/C(=C/C=C/c1ccc(O)cc1)c1ccccc1)N1CCN(c2ncccn2)CC1`, the Activity is reported as 81.9% with HT-22 [5] and “Non-Toxic” in the data set with HT-22 [8]. Also, the Papp at 10 h in data set [4] was 5.2 ×10⁻⁶ cm/s. Besides, the EC50 in the data set with HT-22 [1] worked out at 12 µM.

Take `COc1cccc(/C=C/C=C(/C(=O)N2CCN(c3ncccn3)CC2)c2ccccc2)c1`: the Papp at 10 h in data set [4] came to 10.2 ×10⁻⁶ cm/s. In the data set with HT-22 [1], the concentration giving a half-maximal response (EC50) is over 20 µM.

On to `COc1ccc(/C=C/C=C(/C(=O)N2CCN(c3ncccn3)CC2)c2ccccc2)c(OC)c1`, for which, in [4], the Papp at 10 h worked out at 18.9 ×10⁻⁶ cm/s. In addition, the half-maximal effective concentration (EC50) with HT-22 [1] is over 20 µM.

On to `COc1ccc(/C=C/C=C(/C(=O)N2CCN(c3ncccn3)CC2)c2ccccc2)cc1`, for which the Papp at 10 h in [4] turned out to be 15.7 ×10⁻⁶ cm/s. In addition, in the data set with HT-22 [1], the EC50 was over 20 µM.

In the case of `O=C(/C(=C/C=C/c1ccccc1)c1ccc(O)cc1)N1CCN(c2ncccn2)CC1`, the Papp at 10 h in data set [4] was 8.3 ×10⁻⁶ cm/s. Further, in the data set with HT-22 [1], the EC50 was over 20 µM.

Regarding `COc1cc(/C=C/C=C(/C(=O)N2CCN(c3ncccn3)CC2)c2ccc(O)c(OC)c2)ccc1O`, the Activity in the data set on HT-22 [5] is listed as 79.5%. For the same compound, in data set [4], the Papp at 10 h worked out at 5.3 ×10⁻⁶ cm/s. In the data set with HT-22 [1], the EC50 came out at 4 µM.

On to `O=C(/C(=C/C=C/c1cccc(O)c1)c1ccccc1)N1CCN(c2ncccn2)CC1`, for which the Papp at 10 h in data set [4] was 9.9 ×10⁻⁶ cm/s. In the data set with HT-22 [1], the EC50 was over 20 µM.

In the case of `COc1cc(/C(=C\C=C\c2ccccc2)C(=O)N2CCN(c3ncccn3)CC2)ccc1O`, in [4], the Papp at 10 h turned out to be 10.2 ×10⁻⁶ cm/s. For the same compound, the 50% effective concentration (EC50) in the data set on HT-22 [1] was over 20 µM.

For the compound `COc1cc(/C=C/C=C(/C(=O)N2CCN(c3ncccn3)CC2)c2ccccc2)ccc1O`, the outcome with HT-22 [9], with Rattus norvegicus [11], in the data set with Rattus norvegicus [12], in the data set with HT-22 [13], in the data set on HT-1080 [14] and with HT-22 [17] was Active. In addition, the result in the data set on HT-22 [19], in the data set with Rattus norvegicus [20], with HT-22 [22], in the data set with Rattus norvegicus [23], in the data set with Rattus norvegicus [24] and with Rattus norvegicus [25] was Active. Further, the result with Rattus norvegicus [26] was Active. Besides, the Activity result in the data set with HT-22 [10] is “Dde”; in the data set with HT-22 [5], 76.7%; in the data set with HT-22 [16] it was “Dde”; with HT-22 [21] it was “Dde”. Besides, the concentration giving a half-maximal response (EC50) with HT-22 [15], in the data set on HT-22 [18] and with HT-22 [1] was 1.7 µM throughout. In [4], the Papp at 10 h is 15.3 ×10⁻⁶ cm/s. In addition, the inhibition result in the data set on HT-22 [3] (DDE = dose-dependent effect) was “Dde”.

For `CC(=O)N(O)CCCCCNC(=O)CCC(=O)N(O)CCCCCNC(=O)CCC(=O)N(O)CCCCCN`, the outcome in data set [27] and in data set [28] was Active.
